Laboratory results reported in article PMC8952364, “Polyphenols as Inhibitors of Antibiotic Resistant Bacteria—Mechanisms Underlying Rutin Interference with Bacterial Virulence” (Pharmaceuticals, 2022).

Test system: P. aeruginosa IBRS P001 biofilm
Assay: Biofilm MTT assay (biofilm formation)
Assay type: cell-based, Pseudomonas aeruginosa
Conditions: rutin MIC, co-incubation 24 h
Protocol: The impact of rutin on P. aeruginosa IBRS P001 biofilm formation was determined as previously described by estimating the metabolic activity of microbial cells using an MTT assay. […] The supernatants were then ejected and the biofilms washed with PBS. MTT reagent (200 μL, 0.5 mg/mL) was added and the plate was incubated at 37 °C in the dark for 2 h. The resulting dye was dissolved in DMSO and the absorbance was measured at 570 nm in a microtiter plate reader Multiskan™ FC Microplate Photometer, Thermo Scientific™. The inhibition percentage of biofilm cell viability was calculated:%Inhibition = [(A570control − A570sample)/A570control] × 100
With A570control representing the absorbance of untreated sample, and A570sample representing the absorbance of the rutin treated sample. A solvent-treated sample was used as the control.

C[C@@H]1O[C@@H](OC[C@H]2O[C@@H](Oc3c(-c4ccc(O)c(O)c4)oc4cc(O)cc(O)c4c3=O)[C@H](O)[C@@H](O)[C@@H]2O)[C@H](O)[C@H](O)[C@H]1O [Rutin, rutin]
reduction of metabolic activity of cells forming the biofilm: 88%
